{"source": "patent US20260001847A1", "about": "“HERBICIDAL QUINOLONE DERIVATIVES” (SYNGENTA CROP PROTECTION AG, priority 2022, published 2026)", "format_in_all_cases": "in vivo", "details_in_all_cases": "1000 g/ha, evaluated after 13 days", "key": {"[1]": {"test_system": "Abutilon theophrasti (ABUTH)", "assay": "Pre-emergence Test"}, "[2]": {"test_system": "Ipomoea hederacea (IPOHE)", "assay": "Pre-emergence Test"}, "Setaria faberi (SETFA) [3]": {"test_system": "Setaria faberi (SETFA)", "assay": "Pre-emergence Test"}, "[4]": {"test_system": "Echinochloa crus-galli (ECHCG)", "assay": "Pre-emergence Test"}, "Zea mays (ZEAMX) [5]": {"test_system": "Zea mays (ZEAMX)", "assay": "Pre-emergence Test"}, "[6]": {"test_system": "Amaranthus retoflexus (AMARE)", "assay": "Pre-emergence Test"}, "Solanum nigrum (SOLNI) [7]": {"test_system": "Solanum nigrum (SOLNI)", "assay": "Pre-emergence Test"}, "Lolium perenne (LOLPE) [8]": {"test_system": "Lolium perenne (LOLPE)", "assay": "Pre-emergence Test"}, "[9]": {"test_system": "Abutilon theophrasti (ABUTH)", "assay": "Post-emergence Test", "method": "(§1) Seeds of a variety of test species are sown in standard soil in pots (Abutilon theophrasti (ABUTH), Ipomoea hederacea (IPOHE). Setaria faberi (SETFA), Echinochloa crus-galli (ECHCG), Zea mays (ZEAMX), Amaranthus retoflexus (AMARE), Solanum nigrum (SOLNI), Lolium perenne (LOLPE), Amaranthus palmeri (AMAPA)). After 8 days cultivation under controlled conditions in a glasshouse (at 24° C./16° C., day/night-; 14 hours light; 65% humidity), the plants are sprayed with an aqueous spray solution derived from the formulation of the technical active ingredient in acetone/water (50:50) solution containing 0.5% Tween 20 (polyoxyethylene sorbitan monolaurate, CAS RN 9005-64-5). Compounds are applied at 1000 g/ha unless otherwise stated. The test plants are then grown in a glasshouse under controlled conditions in a glasshouse (at 24° C./16° C., day/night; 14 hours light; 65% humidity) and watered twice daily. After 13 days the test is evaluated for the percentage damage caused to the plant. The biological activities are shown in the following table on a five-point scale (5=81-100%; 4=61-80%; 3=41-60%; 2=21-40%; 1=0-20%; -=not tested)."}, "[10]": {"test_system": "Amaranthus retoflexus (AMARE)", "assay": "Post-emergence Test", "method": "as §1"}, "[11]": {"test_system": "Echinochloa crus-galli (ECHCG)", "assay": "Post-emergence Test", "method": "as §1"}, "[12]": {"test_system": "Ipomoea hederacea (IPOHE)", "assay": "Post-emergence Test", "method": "as §1"}, "Lolium perenne (LOLPE) [13]": {"test_system": "Lolium perenne (LOLPE)", "assay": "Post-emergence Test", "method": "as §1"}, "Setaria faberi (SETFA) [14]": {"test_system": "Setaria faberi (SETFA)", "assay": "Post-emergence Test", "method": "as §1"}, "Solanum nigrum (SOLNI) [15]": {"test_system": "Solanum nigrum (SOLNI)", "assay": "Post-emergence Test", "method": "as §1"}, "Zea mays (ZEAMX) [16]": {"test_system": "Zea mays (ZEAMX)", "assay": "Post-emergence Test", "method": "as §1"}}}
{"smiles": "CCn1c(-c2ccc(Cl)c(Cl)c2)c(C(=O)O)c(=O)c2ccccc21", "note": "[Compound 3, 2-(3,4-dichlorophenyl)-1-ethyl-4-oxo-quinoline-3-carboxylic acid]", "values": [{"measurement": "percentage damage caused to the plant, ABUTH", "setting": "[1]", "value": "1 (1=0-20%)"}, {"measurement": "percentage damage caused to the plant, IPOHE", "setting": "[2]", "value": "3 (3=41-60%)"}, {"measurement": "percentage damage caused to the plant, SETFA", "setting": "Setaria faberi (SETFA) [3]", "value": "5 (5=81-100%)"}, {"measurement": "percentage damage caused to the plant, ECHCG", "setting": "[4]", "value": "5 (5=81-100%)"}, {"measurement": "percentage damage caused to the plant, ZEAMX", "setting": "Zea mays (ZEAMX) [5]", "value": "3 (3=41-60%)"}, {"measurement": "percentage damage caused to the plant, AMARE", "setting": "[6]", "value": "2 (2=21-40%)"}, {"measurement": "percentage damage caused to the plant, SOLNI", "setting": "Solanum nigrum (SOLNI) [7]", "value": "4 (4=61-80%)"}, {"measurement": "percentage damage caused to the plant, LOLPE", "setting": "Lolium perenne (LOLPE) [8]", "value": "3 (3=41-60%)"}, {"measurement": "percentage damage caused to the plant, ABUTH", "setting": "[9]", "value": "2 (2=21-40%)"}, {"measurement": "percentage damage caused to the plant, AMARE", "setting": "[10]", "value": "3 (3=41-60%)"}, {"measurement": "percentage damage caused to the plant, ECHCG", "setting": "[11]", "value": "3 (3=41-60%)"}, {"measurement": "percentage damage caused to the plant, IPOHE", "setting": "[12]", "value": "4 (4=61-80%)"}, {"measurement": "percentage damage caused to the plant, LOLPE", "setting": "Lolium perenne (LOLPE) [13]", "value": "2 (2=21-40%)"}, {"measurement": "percentage damage caused to the plant, SETFA", "setting": "Setaria faberi (SETFA) [14]", "value": "4 (4=61-80%)"}, {"measurement": "percentage damage caused to the plant, SOLNI", "setting": "Solanum nigrum (SOLNI) [15]", "value": "4 (4=61-80%)"}, {"measurement": "percentage damage caused to the plant, ZEAMX", "setting": "Zea mays (ZEAMX) [16]", "value": "1 (1=0-20%)"}]}
